Series [1] addresses T1, human UGT1A9*3 (Homo sapiens, UniProt O60656, M33T).
T1 sequence (O60656 26-530 M33T): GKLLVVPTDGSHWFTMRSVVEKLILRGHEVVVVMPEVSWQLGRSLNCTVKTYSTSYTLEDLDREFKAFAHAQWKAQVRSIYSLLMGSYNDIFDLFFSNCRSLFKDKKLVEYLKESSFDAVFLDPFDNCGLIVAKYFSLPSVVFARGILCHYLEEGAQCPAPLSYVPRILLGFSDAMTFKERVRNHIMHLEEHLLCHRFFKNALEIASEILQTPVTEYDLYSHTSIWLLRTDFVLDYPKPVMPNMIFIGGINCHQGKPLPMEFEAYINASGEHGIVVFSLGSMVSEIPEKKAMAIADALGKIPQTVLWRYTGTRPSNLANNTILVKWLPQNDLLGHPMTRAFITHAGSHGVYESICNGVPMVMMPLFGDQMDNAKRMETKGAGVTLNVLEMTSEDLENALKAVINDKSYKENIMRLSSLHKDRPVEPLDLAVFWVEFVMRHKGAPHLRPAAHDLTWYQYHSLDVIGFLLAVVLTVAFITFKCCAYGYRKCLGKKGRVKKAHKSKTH
Kind of series: Glucuronidation by microsomes of HEK-293 cells stably expressing UGT1A9*3. As for the experimental part: Microsomal fractions from HEK-293 cells stably expressing human UGT1A9*1, UGT1A9*2 and UGT1A9*3 were used in enzymatic assays. Reactions (100 μl volume) contained 50 mM Tris-HCl, pH 7.3, 10 mM MgCl2, 100 μg/mL phosphatidylcholine, 1 mM UDP-glucuronic acid, 40 to 60 μg of membrane protein. […] Human liver microsome were incubated in the same condition for control. Reaction was stopped by the addition of 200 μL MeOH+1% HCl 2N, followed by centrifugation at 14000 rpm for 10 minutes. Supernatant was filtered through a 0.22 μm filter and 100 μL of water was added. For SN-38 and SN-38-glucuronide detection, 10 μL samples were injected on a liquid chromatographic system coupled to a fluorescence detector. Time-course experiments were realized to determine the linearity of the glucuronidation reaction.
A liquid chromatographic method was developed to quantify SN-38 glucuronidation of UGT cell line-derived microsomes and human liver microsomes. Samples were analyzed using high performance liquid chromatography (Alliance 2695, Waters, Milford, Mass.). […] At a constant flow rate (0.7 ml/min), a linear gradient from 20 to 65% B was run over 3 min, held 0.8 min and a second gradient until 95% of B was run over 2 min and then re-equilibrated to 20% B over 2 min. The effluent from the HPLC system (Alliance 2695) was connected directly to a fluorescence detector (Waters, Milford, Mass.) using an excitation wavelength of […] and an emission of 460 nm. […] Determination of the glucuronidation rates obtained with other substrates was performed as currently known in the art.
Microsomal fractions from HEK293 (40 to 60 μg) were added to a reaction mixture (100 μL) containing 50 mM Tris-HCl, pH 7.3, 10 mM MgCl2, 100 μg/mL phosphatidylcholine and 2 mM UDP-glucuronic acid. […] Commercially available human liver microsomes (Human Cell Culture Center Inc., Laurel, Md.) were incubated in the same conditions for all experiments. Time-course experiments were performed to determine the linearity of the glucuronidation reaction. For the determination of Vmax and Km. HEK293 cells stably expressing UGT1A9 enzymes were incubated in the presence of various concentrations of SN-38 ranging from 0.1 to 200 μM and incubated for 30 min as described above whereas UGT1A7 membranes preparations were incubated for 3 hours. […] Reactions with SN-38 were stopped by the addition of 200 μL MeOH+1% HCl 2N, followed by centrifugation at 14000×g for 10 minutes. The supernatants were filtered through a 0.22 μm membrane and 100 μL of water was added to the filtrate. For the detection of SN-38 and its glucuronide (SN-38G), 10 μL samples were injected in a liquid chromatographic system (HPLC) coupled to fluorescence detector as described below.
A HPLC method was developed to quantify the rates of SN-38 glucuronidation from the various microsomal fractions under study. The HPLC system used was an Alliance 2695 (Waters, Milford, Mass.) equipped with a 50×3.2 mm Colombus C18 column (Phenomenex, Torrance, Calif.). […] Then a second gradient ranging from 65% to 95% solvent B was generated during the following 2 min. Finally, the column was re-equilibrated to 20% solvent B for 2 min. The column was connected to a fluorescence detector model 474 (Waters, Milford, Mass.) and the molecules were excited at a wavelength of 370 nm and an emission of 425 nm.

The subject of series [2] is human liver microsomes. Description: SN-38 glucuronidation kinetics with commercially available human liver microsomes. It counts as in vitro ADME. The source says: For the determination of Vmax and Km.
In general terms: Microsomes from liver hold many membrane-bound enzymes, among them those of drug oxidation.

The mark [3] stands for this setting: threonine at position 33, versus UGT1A9*1.

Read-outs that look alike come from different tables or passages of the source.

Usually Km stands for the substrate concentration at which the rate is half of its maximum.

Take `CCc1c2c(nc3ccc(O)cc13)-c1cc3c(c(=O)n1C2)COC(=O)[C@]3(O)CC` [SN-38, 7-ethyl-10-hydroxycamptothecin]: the “residual activity compared to the wild type enzyme (SN-38G formation)” value in series [1] (5 μM of SN-38) is on record as 3.8%. Further, in series [1] (SN-38 glucuronidation), the “Vmax values lower for UGT1A9*3 compared with UGT1A9*1” value is on record as “about 26 times”. Besides, the Vmax in series [1] (SN-38 glucuronidation, 0.1 to 200 μM, mean±SD) worked out at 11.89±2.61 pmol/min/mg protein; in series [1] (SN-38 glucuronidation, Table 5) it was 15.50 ± 8.40. The Km in series [1] (SN-38 glucuronidation, Table 5) is 3.21 ± 0.95 µM; in series [1] (read-out: Apparent Km, SN-38 glucuronidation, 0.1 to 200 μM, mean±SD, Lineweaver-Burk), 3.21 ± 0.95 µM; in series [2] (SN-38, LCQ detector), 6.8 ± 3 µM; in series [2] (SN-38, fluorescent detection), 4.8 ± 0.8 µM. The “SN-38 glucuronidating activity of the allele (in words)” value in series [1] (in vitro functional genomic assays) is “low”. Besides, in series [1] (setting [3]), the “decrease of glucuronidation rate” value is reported as “approximately 20 folds”. The “decreased conjugation rate for SN-38” value in series [1] (setting [3]) is recorded as 96.3%. Further, in series [1] (versus UGT1A9*1), the “effect of codon 33 variation on affinity of the protein for the substrate (in words)” value is on record as “does not affect significantly”.

(Values after patent US20060183119A1, “Method for determining predisposition to a physiological reaction in a patient” (UNIVERSITE LAVAL, priority 2002, published 2006).)
